These are literature values, as cited in patent US20110207823A1, “12-HOUR SUSTAINED-RELEASE METOCLOPRAMIDE” (POSIVISIONARY SOLUTIONS LLP, priority 2008, published 2011).

The conditions of the data set: immediate release dosages.

For `CCN(CC)CCNC(=O)c1cc(Cl)c(N)cc1OC` [metoclopramide, Metoclopramide], the “metoclopramide peaks in plasma with undesirable side effects (akathisia)” value is given as “above 100 nanograms per milliliter”.
